“And” between values parts separate entries of the source, which are not always exact repeats. Equal values may be shown once.
What follows are compounds tested against Beta-lactamase (Escherichia coli (strain K12), UniProt P00811) (assay: Cell Free Inhibition Assay). Settings: pH 7; 37 °C.
Chain of Beta-lactamase (P00811 whole entry): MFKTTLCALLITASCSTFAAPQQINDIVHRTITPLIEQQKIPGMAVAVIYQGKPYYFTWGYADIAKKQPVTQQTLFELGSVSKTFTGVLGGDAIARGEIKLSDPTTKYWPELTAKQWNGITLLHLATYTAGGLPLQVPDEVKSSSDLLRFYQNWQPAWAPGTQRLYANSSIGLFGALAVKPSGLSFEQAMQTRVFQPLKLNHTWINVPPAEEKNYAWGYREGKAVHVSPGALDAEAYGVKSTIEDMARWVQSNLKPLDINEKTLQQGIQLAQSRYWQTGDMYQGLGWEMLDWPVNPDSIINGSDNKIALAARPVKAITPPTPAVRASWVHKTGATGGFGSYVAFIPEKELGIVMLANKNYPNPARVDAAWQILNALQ
Method: (§1) Assays are performed with beta -lactamases expressed in the pET system (Novagen, San Diego, Calif.) without signal peptides. They contain an N-terminal hexa-Histidine tag that is used for purification on Ni-NTA (Qiagen, Hilden, Germany). The compounds are prepared as 50 mM stocks in DMSO and diluted into buffer P1 (50 mM phosphate, pH 7) to a final concentration of 10% DMSO. All further dilutions are done in P2 (P1 with 10% DMSO). Enzyme and compound dilutions are pre-incubated for 10 min at 37 C. and the reaction is started with the addition of pre-warmed (37 C.) […]. The change in absorption at 490 nm is followed at 37 C. for 10 min with 30 s intervals.
For `O=CC=C1O[C@@H]2CC(=O)N2C1(CC=CCO)C(=O)OCc1ccccc1` (single isomer, unassigned) [US9120808, Example 9], the IC50 was 115 µM and 14.3 µM. For `O=C(O)C=C1O[C@@H]2CC(=O)N2C1(C/C=C/c1ccccc1)C(=O)OCc1ccccc1` (single isomer, unassigned) [US9120808, Example 28], the IC50 was 6.02 µM and 11.7 µM. With `COC(=O)C1(C/C=C/c2ccccc2)C(=CC(=O)O)O[C@@H]2CC(=O)N21` (single isomer, unassigned) [US9120808, Example 36] the IC50 was 41.1 µM and 4.19 µM. In the case of `O=C1OC(CI)CC1=C1O[C@@H]2CC(=O)N2C1C(=O)OCc1ccccc1` (single isomer, unassigned) [US9120808, Example 42], the IC50 is reported as 0.285 µM and 0.385 µM. `C=CCC(C=O)=C1O[C@@H]2CC(=O)N2C1C(=O)OCc1ccccc1` (some centres not stated) [US9120808, Example 1] gave an IC50 of 10.4 µM. For `C=CCC1(C(=O)OCc2ccccc2)C(=CC=O)O[C@@H]2CC(=O)N21` (some centres not stated) [US9120808, Example 2], the IC50 was 58.8 µM. Compound `C=CCC(C=O)=C1O[C@@H]2CC(=O)N2C1(CC=C)C(=O)OCc1ccccc1` (some centres not stated) [US9120808, Example 3] has an IC50 of 95.1 µM. Compound `O=CC(CC=CCO)=C1O[C@@H]2CC(=O)N2C1C(=O)OCc1ccccc1` (some centres not stated) [US9120808, Example 7] has an IC50 of 5.38 µM. With `CC(=O)OCC=CCC(C=O)=C1O[C@@H]2CC(=O)N2C1C(=O)OCc1ccccc1` (some centres not stated) [US9120808, Example 10] the IC50 was 16 µM. Compound `C=CCC(C=O)=C1O[C@@H]2CC(=O)N2C1C(=O)OC` (some centres not stated) [US9120808, Example 16] has an IC50 of 0.941 µM. `C=CCC1(C(=O)OC)C(=CC=O)O[C@@H]2CC(=O)N21` (some centres not stated) [US9120808, Example 17] showed an IC50 of 36 µM. `C=CCC(C(=O)O)=C1O[C@@H]2CC(=O)N2C1C(=O)OCc1ccccc1` (some centres not stated) [US9120808, Example 24] showed an IC50 of 4.98 µM. Work on `C=CCC(C(=O)O)=C1O[C@@H]2CC(=O)N2C1C(=O)OC` (some centres not stated) [US9120808, Example 32] yielded an IC50 of 2.86 µM. Compound `CC1CC(=C2O[C@@H]3CC(=O)N3C2C(=O)O)C(=O)O1` (some centres not stated) [US9120808, Example 50] has an IC50 of 27 µM. For `CCCC(C(=O)O)=C1O[C@@H]2CC(=O)N2C1C(=O)O` (some centres not stated) [US9120808, Example 51], the IC50 was 415 µM. Work on `COC(=O)C1C(=C(CCCc2ccccc2)C(=O)O)O[C@@H]2CC(=O)N12` (some centres not stated) [US9120808, Example 53] yielded an IC50 of 0.541 µM. `CCCC(C(=O)O)=C1O[C@@H]2CC(=O)N2C1C(=O)OC` (some centres not stated) [US9120808, Example 54] gave an IC50 of 3.42 µM. `COC(=O)C(CCCc1ccccc1)=C1O[C@@H]2CC(=O)N2C1C(=O)OC` (some centres not stated) [US9120808, Example 57] showed an IC50 of 5.33 µM. In the case of `O=C(O)C(CC=CCN(Cc1ccccc1)C(=O)OCc1ccccc1)=C1O[C@@H]2CC(=O)N2C1C(=O)OCc1ccccc1` (some centres not stated) [US9120808, Example 58], the IC50 is reported as 4.51 µM. `O=C(OCc1ccccc1)C1C(=C2COC(CI)C2)O[C@@H]2CC(=O)N12` (some centres not stated) [US9120808, Example 59] showed an IC50 of 6.45 µM.

What follows are compounds tested against Beta-lactamase TEM (Escherichia coli, UniProt P62593) (assay: Cell Free Inhibition Assay). Settings: pH 7; 37 °C.
Chain of Beta-lactamase TEM (P62593 whole entry): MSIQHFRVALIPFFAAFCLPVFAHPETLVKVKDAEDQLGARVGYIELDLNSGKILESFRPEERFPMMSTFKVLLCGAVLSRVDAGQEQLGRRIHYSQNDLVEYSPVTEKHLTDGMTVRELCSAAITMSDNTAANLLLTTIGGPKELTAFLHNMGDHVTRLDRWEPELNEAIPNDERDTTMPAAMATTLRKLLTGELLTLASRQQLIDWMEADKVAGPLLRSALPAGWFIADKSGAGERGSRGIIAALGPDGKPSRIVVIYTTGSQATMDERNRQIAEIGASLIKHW
Method: as §1
Compound `CCCC(CO)=C1O[C@@H]2CC(=O)N2C1C(=O)O` (some centres not stated) [US9120808, Example 55] has an IC50 of 118 µM. With `CCCC1(C(=O)O)/C(=C/CO)O[C@@H]2CC(=O)N21` (some centres not stated) [US9120808, Example 56] the IC50 was 17.8 µM.
